“Also recorded” adds a separate entry of the source. Like-named read-outs stand apart in the source and are kept apart here. Non-standard residues stand in square brackets, D forms with d. Residues, ends and D or L forms follow the SMILES beside them. *: point of attachment. Sta = CC(C)C[C@H](N)[C@@H](O)CC(=O)O; Isovaleryl = CC(C)CC(=O)*
Assays:
stress ulceration = conditions: two or more days of pretreatment; Strauss et al. 1977; cited from earlier work
gastric acid secretion [1] = conditions: cited from earlier work
[2] = Toxicity profile in pharmacological studies in animals; format: in vivo
histamine H2 -receptor = histamine H2 -receptor (Homo sapiens, UniProt P25021); conditions: Cavanagh et al. 1980; cited from earlier work
histamine H2 -receptor, sequence (P25021 whole entry, species assumed): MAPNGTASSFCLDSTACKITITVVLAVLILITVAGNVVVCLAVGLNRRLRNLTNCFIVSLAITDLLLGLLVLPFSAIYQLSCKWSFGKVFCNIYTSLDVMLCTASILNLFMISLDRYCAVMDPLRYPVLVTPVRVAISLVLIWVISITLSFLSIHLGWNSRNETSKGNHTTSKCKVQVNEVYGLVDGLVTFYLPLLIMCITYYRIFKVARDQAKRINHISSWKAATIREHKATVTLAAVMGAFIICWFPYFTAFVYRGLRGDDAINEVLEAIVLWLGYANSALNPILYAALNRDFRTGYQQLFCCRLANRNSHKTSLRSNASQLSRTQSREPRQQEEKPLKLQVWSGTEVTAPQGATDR

[3] = tested on: gastric erosions produced in rats by the oral instillation of 1.0 ml of 0.75 N HCl; assay: HCl-induced gastric erosions in rats (modified method of Robert et al.); format: in vivo, rat (Long Evans)
Procedure: In the tests described below, gastric erosions produced in rats by the oral instillation of 1.0 ml of 0.75 N HCl were compared with those in rats which had been pretreated with etintidine or with etintidine and pepstatin.
A modification of the method of Robert et al., [Gastroenterology, 77, 433-443 (1979)] was employed to produce gastric erosions. Adult male, Long Evans rats weighing 280-300 g (Blue Spruce Farms, Alton, New York) were used. The animals were individually caged and food and water were removed 24 and 18 hours, respectively, prior to testing. On the following day, etintidine was administered orally to the animals 30 minutes before 1.0 ml of 0.75 N HCl was instilled into the stomach by gavage. […]
The stomachs were removed from the animals, cut along the greater curvature, opened, rinsed with saline and pinned out flat in a standard position for macroscopic examination and scoring of erosions. The stomachs were photographed with a Polaroid® Close Up camera (Polaroid Corporation) and scoring was determined from the photographs. […]
Data were analyzed using the t-test for unpaired data and ED50 values were calculated from dose response data using probit analysis [Finney, Probit Analysis, 3rd ed., University Press, Cambridge, England (1971)]. […]

[4] = tested on: meal stimulated gastric acid secretion; conditions: patients with inactive duodenal ulcers; Myers and Peterson 1980; cited from earlier work
gastric acid secretion [5] = assay: Inhibitory effect on gastric acid secretion versus pepsin activity; conditions: in vivo
gastric ulcer = conditions: cited from earlier work
[6] = tested on: stomach ulcers in the pylorus ligated (Shay) rat; conditions: Umezawa et al. 1970; cited from earlier work
[7] = daily oral doses of 700 mg for up to three months; Svendsen et al. 1976; cited from earlier work
pepsin [8] = conditions: in the stomach; U.S. Pat. No. 4,101,650; cited from earlier work
pepsin [9] = conditions: cited from earlier work
[10] = tested on: stomach ulcers in the pylorus ligated (Shay) rat; assay: Ulcer formation in the pylorus ligated (Shay) rat; format: in vivo; conditions: 18 hour pylorus ligated rat, 20 mg/kg po, previous studies in applicant's laboratories
[11] = all animal species studied; Svendsen et al. 1976; cited from earlier work
pepsin [12] = assay: Pepsin activity in the 18 hour pylorus ligated rat; format: in vivo; conditions: 20 mg/kg po
duodenal ulcer = conditions: cited from earlier work
[13] = Absorption and fecal excretion after oral administration; format: in vivo, animals
[14] = patients with ulcer dyspepsia, Svendsen et al. 1976
[15] = British Medical Journal review 1980

In the case of `CC1(C)[C@@H](OC(=O)CCC(=O)O)CC[C@]2(C)[C@H]3C(=O)C=C4[C@@H]5C[C@@](C)(C(=O)O)CC[C@]5(C)CC[C@@]4(C)[C@]3(C)CC[C@@H]12` [carbenoxolone], the ulcer formation (stress ulceration) is listed as “significantly decreased ulcer formation”.
For `CN/C(=N/CCSCc1nc[nH]c1C)NC#N` [cimetidine], the “effect on pepsin secretion” value (gastric acid secretion [1]; Binder and Donaldson 1978) is given as “less marked”, the “basal and stimulated gastric acid secretion” value (gastric acid secretion [1]; normal volunteers, Burland et al. 1975) is given as “antagonize both basal and stimulated gastric acid secretion” and the “basal and stimulated gastric acid secretion” value (gastric acid secretion [1]; patients with duodenal ulcer, Longstreth et al. 1976) is given as “antagonize both basal and stimulated gastric acid secretion”. For the same compound, the ulcer formation (stress ulceration) was “significantly decreased ulcer formation”.
In the case of `C#CCN/C(=N\C#N)NCCSCc1nc[nH]c1C` [etintidine], the toxicity [2] is listed as “relatively nontoxic”, the “toxicity profile compared with cimetidine” value [2] is listed as “substantially the same as that of the commercial H2 -antagonist cimetidine” and the “potency relative to cimetidine” value (histamine H2 -receptor) is listed as “about twice as potent as cimetidine”. The “ED50 for inhibition of gastric erosions” value ([3]; etintidine po 30 min before 1.0 ml 0.75 N HCl, combination also received pepstatin 20 mg/kg po 10 min before HCl, FIG. 2) was 62 mg/kg, the “formation of gastric erosions” value ([3]; pretreatment with 17.5, 35, 70 or 140 mg/kg etintidine po) was “decreased the formation of gastric erosions in a dose-related manner” and the “meal stimulated gastric acid secretion” value [4] was “effectively antagonizes meal stimulated gastric acid secretion”. For the same compound, the “inhibitory effect on gastric acid secretion compared with pepsin activity” value (gastric acid secretion [5]) was “significantly greater than on pepsin activity”.
For `CC(C)CC(=O)N[C@H](C(=O)N[C@H](C(=O)N[C@@H](CC(C)C)[C@@H](O)CC(=O)N[C@@H](C)C(=O)N[C@@H](CC(C)C)[C@@H](O)CC(=O)O)C(C)C)C(C)C` [pepstatin] (Isovaleryl-VV[Sta]A[Sta]-OH), the “healing or symptomatology of gastric ulcer versus placebo” value (gastric ulcer; 100 mg seven times a day, double-blind randomized trial, Svendsen et al. 1979) is given as “not able to detect any influence of pepstatin”, the “formation of stomach ulcers” value [6] is given as “prevent the formation of stomach ulcers” and the side effects [7] is given as “no side effects were observed”. The “duration of pepsin suppression” value (pepsin [8]) was “about 1 hours”, the gastric acidity (pepsin [9]; [14]) was “no effect on the gastric acidity” and the gastric peptic activity (pepsin [9]; [14]) was “inhibits gastric peptic activity”. For the same compound, the “duration of inhibition of peptic activity of gastric juice” value (pepsin [9]; ulcer patients, 100 mg doses seven times a day) was 18 hours a day, the ulcer formation [10] was “antagonized ulcer formation” and the LD50 [11] was “exceeded 3000 mg/kg”. For the same compound, the pepsin activity (pepsin [12]) was “completely inhibited pepsin activity”, the “healing or symptomatology of duodenal ulcer versus placebo” value (duodenal ulcer; 100 mg seven times a day, double-blind randomized trial, Bonnevie et al. 1979) was “no significant difference between pepstatin and placebo” and the “benefit / healing in patients with duodenal ulcer” value (duodenal ulcer; [15]) was “ineffective”. For the same compound, the “preventing recurrent bleeding in patients admitted with haematemesis and melaena” value (duodenal ulcer; [15]) was “ineffective”, the “absorption upon oral administration” value [13] was “essentially unabsorbed; also recorded: only poorly absorbed” and the “fraction of compound excreted in the feces” value ([13]; animal studies, within 72 hours) was “more than 90%”.
In the case of Amylopectin, the “benefit / healing in patients with duodenal ulcer” value (duodenal ulcer; [15]) is listed as “no significant benefit”.
In the case of sucralfate, the “benefit in patients with gastric ulcer” value (gastric ulcer; [15]) is listed as “none”.
